Values quoted from earlier work as cited in patent US20210319872A1, “DRUG AND DEVICE COMBINATION PRODUCTS WITH IMPROVED SAFETY AND EFFICACY PROFILES” (priority 2016, published 2021).
Like-named read-outs stand apart in the source and are kept apart here.

[1] = subependymal giant cell astrocytoma

In the case of CC[C@@H](C(N)=O)N1CCCC1=O [Levetiracetam (Keppra)], the Asthenia (in vivo) is given as “Neurologic: Asthenia (15%), Dizziness (5% to 9%), Headache”, the Cough (in vivo) is given as “Respiratory: Cough (2% to 9%), Nasopharyngitis (7% to 15%)” and the “Decreased bone mineral density” value (in vivo) is given as “Musculoskeletal: Decreased bone mineral density (70%), Neck pain”. For the same molecule, the “Decreased white blood cell count” value (in vivo) was “blood cell count (2.4% to 3.2%), Eosinophilia (8.6%), Neutropenia”, the Dizziness (in vivo) was “Neurologic: Asthenia (15%), Dizziness (5% to 9%), Headache” and the Eosinophilia (in vivo) was “blood cell count (2.4% to 3.2%), Eosinophilia (8.6%), Neutropenia”. The Fatigue (in vivo) was “Other: Fatigue (10% to 11%)”, the Headache (in vivo) was “(14% to 19%)” and the Infectious disease (in vivo) was “Immunologic: Infectious disease (13%)”. For the same molecule, the Nasopharyngitis (in vivo) was “Respiratory: Cough (2% to 9%), Nasopharyngitis (7% to 15%)”, the Neck pain (in vivo) was “(2% to 8%)” and the Neutropenia (in vivo) was “(partial onset seizures, adults, 2.4%), Pancytopenia,”. For the same molecule, the Somnolence (in vivo) was “Neurologic: Somnolence (8% to 45%)”, the Suicidal intent (in vivo) was “Psychiatric: Suicidal intent (0.5%), Suicide” and the Vomiting (in vivo) was “Gastrointestinal: Loss of appetite (3% to 8%), Vomiting (15%)”.
For Cn1c(CNc2ccc(C(=N)N)cc2)nc2cc(C(=O)N(CCC(=O)O)c3ccccn3)ccc21 [Dabigatran (Pradaxa)], the Bleeding (in vivo) is given as “prophylaxis, 10.5%; nonvalvular atrial fibrillation, 16.6%)”, the “Bleeding, Major” value (in vivo) is given as 0.3% to 1.4%; nonvalvular atrial fibrillation, 3.3%), Thrombosis and the Gastroesophageal reflux disease (in vivo) is given as “disease (Atrial fibrillation, 5.5%), Gastrointestinal hemorrhage”. The Indigestion (in vivo) was “pulmonary embolism, 7.5%)” and the Myocardial infarction (in vivo) was “embolism, 0.32% to 0.66%; nonvalvular atrial fibrillation, 0.7%)”.
In the case of CCC1(CCC(C)C)C(=O)NC(=O)NC1=O [Amytal (amobarbital)], the Agranulocytosis (in vivo) is listed as “Hematologic: Agranulocytosis (rare), Megaloblastic anemia, With”, the “Common side effect, Neurologic” value (in vivo) is listed as “Neurologic: Confusion, Dizziness, Headache, Somnolence” and the “Injury of liver, With prolonged use” value (in vivo) is listed as “Hepatic: Injury of liver, With prolonged use (rare)”. For the same molecule, the “Megaloblastic anemia, With prolonged use” value (in vivo) was “prolonged use (rare)”, the “Serious side effect, Respiratory” value (in vivo) was “Respiratory: Apnea, Hypoventilation” and the Stevens-Johnson syndrome (in vivo) was “Dermatologic: Stevens-Johnson syndrome (rare)”.
In the case of CCCC(=O)Nc1ccc(OCC(O)CNC(C)C)c(C(C)=O)c1 (stereo not drawn) [Acebutolol (Sectral)], the Angina (in vivo) is listed as “Cardiovascular: Angina (2%), Bradyarrhythmia (2%), Heart failure”, the Bradyarrhythmia (in vivo) is listed as “Cardiovascular: Angina (2%), Bradyarrhythmia (2%), Heart failure” and the Dizziness (in vivo) is listed as “Neurologic: Dizziness (6%), Headache (6%)”. The Fatigue (in vivo) was “Other: Fatigue (11%)”, the Headache (in vivo) was “Neurologic: Dizziness (6%), Headache (6%)” and the Heart failure (in vivo) was “(2%)”.
For CN[C@H]1CC[C@@H](c2ccc(Cl)c(Cl)c2)c2ccccc21 [Sertraline (Zoloft)], the Abnormal ejaculation (in vivo) is given as “Reproductive: Abnormal ejaculation (7% to 19%), Reduced libido”, the Constipation (in vivo) is given as “Gastrointestinal: Constipation (3% to 8%), Diarrhea (13% to 24%),” and the Diarrhea (in vivo) is given as “Gastrointestinal: Constipation (3% to 8%), Diarrhea (13% to 24%),”. The Dizziness (in vivo) was “Neurologic: Dizziness (6% to 17%), Headache (25%), Insomnia”, the Fatigue (in vivo) was “Other: Fatigue (10% to 16%)” and the Headache (in vivo) was “Neurologic: Dizziness (6% to 17%), Headache (25%), Insomnia”. For the same molecule, the Indigestion (in vivo) was “Indigestion (6% to 13%), Nausea (13% to 30%), Nausea and”, the Insomnia (in vivo) was “(12% to 28%), Somnolence (2% to 15%), Tremor (5% to 11%)” and the Nausea (in vivo) was “Indigestion (6% to 13%), Nausea (13% to 30%), Nausea and”. For the same molecule, the Nausea and vomiting (in vivo) was “vomiting (2% to 30%)”, the Reduced libido (in vivo) was “(up to 11%)” and the Somnolence (in vivo) was “(12% to 28%), Somnolence (2% to 15%), Tremor (5% to 11%)”. For the same molecule, the Tremor (in vivo) was “(12% to 28%), Somnolence (2% to 15%), Tremor (5% to 11%)”.
In the case of CN1CCN(C(=O)O[C@H]2c3nccnc3C(=O)N2c2ccc(Cl)cn2)CC1 [Lunesta (eszopiclone)], the Angioedema (in vivo) is listed as “Other: Angioedema (rare)”, the Disorder of taste (in vivo) is listed as “Gastrointestinal: Disorder of taste (8% to 34%), Vomiting (3%)” and the Dizziness (in vivo) is listed as “Neurologic: Dizziness (1% to 7%), Headache (13% to 21%),”. For the same molecule, the Headache (in vivo) was “Neurologic: Dizziness (1% to 7%), Headache (13% to 21%),”, the Migraine (in vivo) was “Migraine (1% or greater)” and the Respiratory tract infection (in vivo) was “Respiratory: Respiratory tract infection (5% to 10%)”. For the same molecule, the Vomiting (in vivo) was “Gastrointestinal: Disorder of taste (8% to 34%), Vomiting (3%)”.
In the case of Nesiritide (Natrecor), the “Dizziness (incidence)” value (in vivo) is given as “Neurologic: Dizziness (2%), Headache (7%)”, the “Headache (incidence)” value (in vivo) is given as “Neurologic: Dizziness (2%), Headache (7%)” and the “Hypotension (incidence)” value (in vivo) is given as “Cardiovascular: Hypotension (4% to 17%)”. For the same molecule, the “Nausea (incidence)” value (in vivo) was “Gastrointestinal: Nausea (3%)” and the “Serum creatinine raised (incidence)” value (in vivo) was “Renal: Serum creatinine raised (17% to 31.4%)”.
In the case of CO[C@H]1C[C@@H]2CC[C@@H](C)[C@@](O)(O2)C(=O)C(=O)N2CCCC[C@H]2C(=O)O[C@H]([C@H](C)C[C@@H]2CC[C@@H](OCCO)[C@H](OC)C2)CC(=O)[C@H](C)/C=C(\C)[C@@H](O)[C@@H](OC)C(=O)[C@H](C)C[C@H](C)/C=C/C=C/C=C/1C [Afinitor], the Pulmonary embolism (PNET) is given as 2.5%, the Angioedema (Transplant) is given as “Other: Angioedema (Transplant, up to 6.8%), Sepsis (tumors less” and the Hemolytic uremic syndrome (Transplant) is given as “Renal: Hemolytic uremic syndrome (Transplant, less than 1%),”. The Pericardial effusion (Transplant) was “Cardiovascular: Pericardial effusion (Transplant, less than 1%)”, the “Thrombocytopenia, All grades” value (Transplant) was no more than 10% and the Thrombotic microangiopathy (Transplant) was < 1%), Thrombotic thrombocytopenic purpura (Transplant, less than. For the same molecule, the Thrombotic thrombocytopenic purpura (Transplant) was less than 1%, the Hypoalbuminemia (breast cancer) was “Hypoalbuminemia (breast cancer, 33%), Hypophosphatemia” and the Interstitial lung disease (in vivo) was “Respiratory: Interstitial lung disease (Less than 1%), Non-”. The Non-infectious pneumonia (in vivo) was no more than 19%, the “Anemia, All grades” value (kidney transplant) was “transplant, 26%), Decreased lymphocyte count, all grades (tumors,” and the Constipation (kidney transplant) was 38%. The Cough (kidney transplant) was 7%, the Diarrhea (kidney transplant) was “kidney transplant, 19%; liver transplant, 19%), Nausea (tumors,” and the Dyslipidemia (kidney transplant) was “Endocrine metabolic: Dyslipidemia (kidney transplant, 15%),”. For the same molecule, the Fatigue (kidney transplant) was 9%, the Fever (kidney transplant) was 19% and the Hypercholesterolemia (kidney transplant) was 17%. The Hyperlipidemia (kidney transplant) was 21%, the Hypertension (kidney transplant) was 30% and the Hypophosphatemia (kidney transplant) was 13%. The Impaired wound healing (kidney transplant) was “Immunologic: Impaired wound healing (kidney transplant, 35%;”, the “Increased glucose level, All grades” value (kidney transplant) was 12% and the Infectious disease (kidney transplant) was 62%. For the same molecule, the Leukopenia (kidney transplant) was 3%, the Nausea (kidney transplant) was 29% and the Peripheral edema (kidney transplant) was 45%. The Serum creatinine raised (kidney transplant) was 18%, the Stomatitis (kidney transplant) was 8% and the Upper respiratory infection (kidney transplant) was “transplant, 16%)”. The “Urinary tract infectious disease” value (kidney transplant) was 16%; kidney transplant, 22%), the Vomiting (kidney transplant) was 15% and the “Serious side effect, Respiratory” value (listed without frequency) was “Pneumocystis pneumonia”. For the same molecule, the Diarrhea (liver transplant) was “kidney transplant, 19%; liver transplant, 19%), Nausea (tumors,”, the Fever (liver transplant) was “transplant, 13%)” and the Hyperlipidemia (liver transplant) was 24%. The Hypertension (liver transplant) was 17%, the Impaired wound healing (liver transplant) was “liver transplant, 11%)” and the Infectious disease (liver transplant) was 50%. The Leukopenia (liver transplant) was 12%, the Nausea (liver transplant) was 14% and the Peripheral edema (liver transplant) was 18%. For the same molecule, the Amenorrhea (renal angiomyolipoma) was “Reproductive: Amenorrhea (renal angiomyolipoma, 15%),”, the Menorrhagia (renal angiomyolipoma) was “angiomyolipoma, 10%)” and the Otitis media (renal angiomyolipoma) was “Otic: Otitis media (renal angiomyolipoma, 6%)”. For the same molecule, the Seizure (renal angiomyolipoma) was “Neurologic: Seizure (renal angiomyolipoma, 5%)”, the Hemorrhage (renal cell carcinoma) was 3% and the Pneumonia (renal cell carcinoma) was 6%. For the same molecule, the Renal failure (renal cell carcinoma) was “Renal failure (renal cell carcinoma, 3%), Thrombosis of renal”, the Mental disorder [1] was “astrocytoma, 21%)” and the “Partial thromboplastin time increased” value [1] was “giant cell astrocytoma, 72%), Thrombocytopenia, All grades”. For the same molecule, the Pleural effusion (tumors) was 7% and the Sepsis (tumors) was less than 1%.
For Nc1nnc(-c2cccc(Cl)c2Cl)c(N)n1 [Lamictal XR], the Anxiety (extended-release) is listed as 3%, the Asthenia (extended-release) is listed as 6% and the Blurred vision (extended-release) is listed as 3%. For the same molecule, the Coordination problem (extended-release) was 3%, the Depression (extended-release) was 3% and the Diarrhea (extended-release) was 5%. The Diplopia (extended-release) was “extended-release, 5%)”, the Dizziness (extended-release) was 14% and the Nausea (extended-release) was 7%. For the same molecule, the Somnolence (extended-release) was 5%, the Tremor (extended-release) was 6% and the Vertigo (extended-release) was “release, 3%)”. The Vomiting (extended-release) was 6%, the Anemia (immediate release) was “Hematologic: Anemia (immediate release, less than 0.1%),” and the Eosinophilia (immediate release) was less than 0.1%. For the same molecule, the Thrombocytopenia (immediate release) was < 1%), Thrombocytopenia (immediate release, less than 0.1%), the Anxiety (immediate-release) was “Psychiatric: Anxiety (immediate-release, 4%; extended-release,” and the Depression (immediate-release) was 4%. For the same molecule, the Headache (immediate-release) was “Headache (immediate-release, 29%), Insomnia (immediate-release,”, the Pain (immediate-release) was “Other: Pain (immediate-release, 5%)” and the Vertigo (immediate-release) was 2%. The Blurred vision (immediate-release, children) was 4%, the Diplopia (immediate-release, children) was 5% and the Angioedema (in vivo) was less than 0.1%. The Erythema multiforme (in vivo) was “Dermatologic: Erythema multiforme (less than 0.1%), Rash,”, the “Serious side effect, Hematologic” value (listed without frequency) was “Disseminated intravascular coagulation, Eosinophilia (immediate” and the “Serious side effect, Hepatic” value (listed without frequency) was “Hepatic: Liver failure”. For the same molecule, the “Serious side effect, Immunologic” value (listed without frequency) was “Immunologic: Drug hypersensitivity syndrome” and the “Serious side effect, Neurologic” value (listed without frequency) was “Neurologic: Aseptic meningitis”.
For CCCCC(=O)N(Cc1ccc(-c2ccccc2-c2nnn[nH]2)cc1)[C@H](C(=O)O)C(C)C [Valsartan (Diovan)], the “Common side effects, listed without incidence” value (in vivo) is given as “Respiratory: Cough”, the Dizziness (in vivo) is given as “Neurologic: Dizziness (2% to 17%), Headache (greater than 1%)” and the Headache (in vivo) is given as “Neurologic: Dizziness (2% to 17%), Headache (greater than 1%)”. The Hypotension (in vivo) was “Cardiovascular: Hypotension (5.5% to 6.9%)” and the “Serum blood urea nitrogen raised” value (in vivo) was “Renal: Serum blood urea nitrogen raised (heart failure, 16.6%),”.
